The subject of the experiment is Methicillin-Resistant Staphylococcus aureus (MRSa) ATCC 33592. Nature of the experiment: Time-kill (rate-of-kill) suspension assay against MRSa. It is filed as cell-based. The text has this:
Analyzing the efficacy of antimicrobial agents may be performed by various suspension and susceptibility methods. This study is designed to examine the rate-of-kill of a test substance against sponsor selected pure cultures of microorganisms. This is accomplished by exposing the target microorganism(s) to the test substance and inspecting the solution for potential survivors at various time periods. The experimental design in this protocol meets these requirements.
A suspension of bacterial cells is exposed to the test substance for specified contact times. After exposure, an aliquot of the suspension is transferred to a neutralizer and assayed for survivors. Appropriate purity, sterility, microorganism population and neutralization controls are performed.
Using a stock culture of the test organism, a culture of the test organism was struck onto the culture medium listed above. The bacterial cultures were incubated for 24-48 hours at 35-37° C. (alternate incubation may be utilized for certain strains). To produce a suspension containing approximately 1×10^8-1×10^9 CFU/mL, the culture suspension was adjusted with Butterfield's Buffer to yield a suspension matching a 0.5 McFarland turbidity standard.
The test substance to be tested was prepared by transferring a 5.95 mL aliquot of the prepared test substance to a sterile vessel for testing procedures. The test substances were assayed for microbial killing activity within 3 hours of preparation.
A […] aliquot of the standardized inoculum was added to the test substance representing the start of the test exposure (time=0 hr). The inoculated test substance was immediately mixed thoroughly using a laboratory vortex mixer or other applicable method. The inoculated and mixed test substance was held at the specified temperature.
A 1.0 mL aliquot of the inoculated test substance was transferred to 9 mL of neutralizer broth (10× dilution) at each of the times indicated. Four additional 1:10 dilutions in Butterfield's Buffer were also prepared. Using a standard microbiological spread plate count procedure, 1.0 mL aliquots of each dilution (10^−1-10^−4) were plated in duplicate to the appropriate recovery media.
A 5.0 mL aliquot of the neutralized sample (10× dilution) was transferred to a sterile 0.2-0.45 μm filter apparatus system pre-wetted with 10 mL sterile diluent. The sample was filter concentrated and the filter was rinsed using ≧50 mL sterile diluent. The filter was then aseptically removed and placed on the surface of the recovery agar medium to determine the percent MRSa survival.
The bacterial subculture plates were incubated for 48±4 hours at 35-37° C. Subculture plates may be refrigerated at 2-8° C. for ≦3 days prior to examination without affecting the results. Following incubation, the subculture tubes and plates were visually examined for growth. The agar plates were enumerated and recorded. Log and percent reductions will be determined for each time point.
As a control for the viability of the test organism, an equivalent volume of untreated inoculum (0.1 mL) is added to 9.9 mL Butterfield's Buffer (same volume as the test substance). This suspension was neutralized as in the test procedure. The suspension was serially diluted and appropriate dilutions plated using standard microbiological techniques. […] The acceptance criteria for this study control is growth and the value is used for calculation purposes.
Test Data CFU/mL: (avg. # colonies found/plate @ dilution used) (dilution factor) (volume of neutralized solution)/(volume plated) Percent Reduction: [1−(test survivors/test population control)]×100 Log10 Reduction: Log10 (test population control)—Log10 (test survivors) Further details of the microbial time-killing studies can be found in: • 1. American Society for Testing and Materials (ASTM). E2315-03, Guide for Assessment of Microbiocidal Activity Using a Time-Kill Procedure, Volume 11.05, Copyright 2005 ASTM International; and • 2. Food and Drug Administration. […]

[1] abbreviates: 2 hour exposure, room temperature (20° C.), Agent 4 dissolved in DMSO, tested at 1, 10, and 100 mM.
[2] abbreviates: 4 hour exposure, room temperature (20° C.), Agent 4 dissolved in DMSO, tested at 1, 10, and 100 mM.
[3] abbreviates: 6 hour exposure, room temperature (20° C.), Agent 4 dissolved in DMSO, tested at 1, 10, and 100 mM.
The mark [4] stands for this setting: 2 hour exposure, room temperature (20° C.), Agent 1 at 82 mM, Agent 2 at 41 mM, Agent 3 at 47 mM, dihydrochloride.
Where [5] appears, read: 4 hour exposure, room temperature (20° C.), Agent 1 at 82 mM, Agent 2 at 41 mM, Agent 3 at 47 mM, dihydrochloride.
[6] abbreviates: 6 hour exposure, room temperature (20° C.), Agent 1 at 82 mM, Agent 2 at 41 mM, Agent 3 at 47 mM, dihydrochloride.
Where [7] appears, read: 2 hour exposure, room temperature (20° C.), Agent 1 at 82 mM, Agent 2 at 41 mM, Agent 3 at 47 mM, 1.13×10^6 CFU/mL.
Setting [8] is: 4 hour exposure, room temperature (20° C.), Agent 1 at 82 mM, Agent 2 at 41 mM, Agent 3 at 47 mM.
Setting [9] is: 6 hour exposure, room temperature (20° C.), Agent 1 at 82 mM, Agent 2 at 41 mM, Agent 3 at 47 mM.

SMILES strings stand for the structures. Where a name gives a salt, the structure may show the parent alone. Where only a bound is given, the exact number is not on record here.

The text below walks through data of patent publication US20080031931A1, “ORGANOTELLURIUM AND SELENIUM-BASED ANTIMICROBIAL FORMULATIONS AND ARTICLES” (Andover Healthcare, Inc., priority 2006, published 2008).

Consider `C=C(C)C(=O)OCC[Se]C#N` [2-selenocyanatoethyl methacrylate], for which the “log10 reduction of MRSa” value reads like this: under setting [1], over 4.1 log10; under setting [2], over 4.1 log10; under setting [3], over 4.1 log10. For the same compound, the “reduction of MRSa” value under setting [1] was over 99.9%, the “reduction of MRSa” value under setting [2] is over 99.9% and the “reduction of MRSa” value under setting [3] is reported as over 99.9%.

On to `NCC[Se][Se]CCN` [Agent 1, selenocystamine dihydrochloride], for which the “reduction of MRSa” value (2 hour exposure, room temperature (20° C.), Agent 1 at 82 mM, Agent 2 at 41 mM, Agent 3 at 47 mM, 1.13×10^6 CFU/mL, dihydrochloride) is recorded as 51.3%; the “reduction of MRSa” value under setting [5] is 71.7%; the “reduction of MRSa” value under setting [6] is listed as 90.1%. Besides, the “log10 reduction of MRSa” value under setting [4] is given as 0.31 log10, the “log10 reduction of MRSa” value under setting [5] was found to be 0.54 log10 and the “log10 reduction of MRSa” value under setting [6] came out at 1.004 log10.

Regarding `NCC[Se][Se]CCN` [Agent 2, selenocystamine dihydrochloride, reference compound], the “reduction of MRSa” value runs as follows: under setting [7], 95.5%; under setting [5], 98.9%; under setting [6], 99.1%. The “log10 reduction of MRSa” value under setting [4] came out at 1.34 log10, the “log10 reduction of MRSa” value under setting [5] is 1.946 log10 and the “log10 reduction of MRSa” value under setting [6] is on record as 2.024 log10.

Regarding `NCC[Te]CCN` [Agent 3, 2,2′-tellurodiethanamine 2 HCl], the “log10 reduction of MRSa” value (2 hour exposure, room temperature (20° C.), Agent 1 at 82 mM, Agent 2 at 41 mM, Agent 3 at 47 mM) is listed as 3.4 log10; the “log10 reduction of MRSa” value under setting [8] was over 4.1 log10; the “log10 reduction of MRSa” value under setting [9] is over 4.1 log10. For the same compound, the “reduction of MRSa” value by setting is: under setting [7], over 99.9%; under setting [8], over 99.9%; under setting [9], over 99.9%.

`O=[Te]([O-])[O-].[K+].[K+]` [Test Substance 1, Potassium tellurite, reference compound]: where the note is “all time points (exposure times of 2, 4 and 6 hours), starting ~3-4×10^6 CFU/mL MRSA ATCC 33592”, the “reduction of MRSa” value was “very little to no reduction”.
